Read-outs that look alike come from different tables or passages of the source.
Assays:
[1] = tested on: stage V NF54 strain male and female gametocytes; experiment: P. falciparum Dual Gamete Formation Assay (PfDGFA); type: cell-based; conditions: Plasmodium falciparum, 48 h
Description: Inhibition of the viability of stage V male and female gametocytes was assessed in the P. falciparum Dual Gamete Formation Assay (PfDGFA) as described previously. Briefly, mature stage V NF54 strain gametocytes were incubated with test molecules for 48 h in 384-well plates at 37°C. Gametogenesis was then triggered by cooling the plates to room temperature and addition of xanthurenic acid-containing activating medium (also containing anti-Pfs25 antibody (Mab 4B7) conjugated to a Cy3 fluorophore). Twenty minutes after activation, exflagellation was imaged in all wells of the plate using a x4 objective and automated brightfield microscopy. The plate was then incubated at 20°C for a further 24 h in the dark. Thereafter, female gamete formation was quantified by automated identification of Pfs25-positive cells. Automated counts were transformed to percent inhibition values with reference to positive 100 nM Cabamiquine (DDD498) and negative (DMSO) controls. Data represent the means of multiple independent biological repeats.

[2] = tested on: P. falciparum (strain 3D7A); design: method as in ref [1] Sanz et al., PloS one 2012; conditions: 10 x IC50; ref [1] Sanz et al., PloS one 2012; cited from earlier work
PfTyrRS [3] = target: T1, PfTyrRS (Plasmodium falciparum, UniProt Q8IAR7); experiment: Differential scanning fluorimetry (DSF) of PfTyrRS; type: binding; conditions: for ΔTm at 50 µM: 50 μM sulfamate, tyrosine, PftRNA^Tyr, 37°C 2 h, read-out: PfTyrRS binding (DSF) Delta Tm; for ΔTm at 50 µM / PfTyrRS Tm: ATP; for Kd: estimated from DSF with an irreversible thermal unfolding model, read-out: PfTyrRS binding (DSF) apparent KD; for PfTyrRS Tm: with sulfamate, tyrosine and tRNA, apo 49.9 ± 0.6
Description: The effect on ML471 and analogues on the thermal stability of TyrRS enzymes was assayed as previously described. […] SYPRO Orange (Sigma-Aldrich; 5,000X concentrate in DMSO) was added to the reaction mixture at a final concentration of 5X. 25 μL of the sample was added into each well of a 96-well qPCR plate (Applied Biosystems). The plate was sealed and analysed using StepOnePlus Real-Time PCR system (Applied Biosystems). The samples were heated from 20°C to 90°C with a 1% continuous gradient. The thermal unfolding curve was plotted as the first derivative curve of the raw fluorescence values. The melting temperature (Tm), defined as the peak of the first derivative curve, was used to assess the thermal stability of protein-ligand complexes.

[4] = tested on: P. falciparum (3D7, ring stage) cultures; experiment: P. falciparum 3D7 72-h growth inhibition, lactate dehydrogenase (PfLDH) assay; type: cell-based; conditions: Plasmodium falciparum, 72 h exposure
Description: Routine analyses of antimalarial activity against P. falciparum 3D7 was tested by TCGLS (Kolkata, India) using the lactate dehydrogenase (PfLDH) growth inhibition assay as previously described. […] P. falciparum strain (3D7) was obtained from BEI Resources.

HepG2 cells = experiment: HepG2 72-h viability, CellTiter-Glo; type: cell-based; conditions: Homo sapiens, 72 h exposure
Description: The HepG2 (Human hepatocyte carcinoma) cell line was procured from ATCC (American Type Culture Collection, Manassas, USA; HB-8065) and viability assessed using CellTiter-Glo luminescent cell viability assay reagents (Promega). For the assay, 2,000 cells/well were plated in 384-well plates 24 h prior to the experiment and incubated at 37°C in a CO2 incubator. The medium was removed; and cells were treated with fresh medium containing either vehicle (0.5% DMSO) or serially diluted compounds or doxorubicin (1.3 nM to 25 μM) in a final volume of 50 μL/well and further incubated for 72 h at 37°C in a CO2 incubator. […] Following incubation, 25 μL of medium was discarded and 25 μl of CellTiter-Glo reagent was added to each well and the plate was kept on a plate shaker for 15 min at 25°C with shaking at 300 rpm. Luminescence signals were measured in a PHERAstar FSX reader (BMG LABTECH).

PfTyrRS [5] = target: T1, PfTyrRS; experiment: ATP consumption by PfTyrRS (Kinase Glo); type: biochemical; conditions: PfTyrRS 25 nM, ATP 10 μM, tyrosine 200 μM, cognate tRNA^Tyr 4.8 μM, 37°C 1 h; read-out: Inhibition of PfTyrRS (Kinase Glo) IC50
Description: Consumption of ATP was measured using a luciferase-based assay as per the manufacturer’s instructions (Kinase-Glo Luminescent Kinase Assay, Promega).

[6] = tested on: Pf3D7-pfs16-CBG99 gametocytes, immature (stage II/III) and mature (stage V); experiment: Gametocyte killing assay (luciferase); type: cell-based; conditions: Plasmodium falciparum, 48 h
Description: Gametocytogenesis was induced on a tightly synchronised (>97% rings) asexual parasite culture (Pf3D7-pfs16-CBG99 (kind gift from Pietro Alano), 0.5% parasitemia and 6% hematocrit) with a combination of nutrient starvation and a decrease in hematocrit, as previously described. For immature gametocytes (>90% stage II/III), cultures were exposed to 50 mM N-acetyl glucosamine (NAG) on days 1–4 to eliminate residual asexual parasites and harvested at days 5–6. For mature (>95% stage V) gametocytes, NAG treatment occurred from days 3–7 and harvest at day 13. Stage II/III and V gametocyte cultures (2 % gametocytaemia 1.5 % haematocrit, 150 μL/well) were exposed to compounds and incubated at 37°C for 48 h under hypoxic conditions, after which luciferase activity was determined with a non-lysing D-luciferin substrate (1mM in 0.1M citrate buffer, pH 5.5, 100 μL) and bioluminescence was detected with a 2 s integration time with a GloMax-Multi Detection System with Instinct software.

[7] = tested on: P. falciparum liver stage schizont (NF135); experiment: Liver stage schizont assay in primary human hepatocytes (NF135); type: cell-based; conditions: Plasmodium falciparum, Hepatocyte, 96 h, four days
Description: (§1) Activity against liver stage parasites was performed using a modification of published procedures. Briefly, cryopreserved human primary hepatocytes (NF175: H1500.H15B+ Lot No. HC0-6, TebuBio or NF135: F00995-P Lot No. IRZ, BioIVT) were thawed and seeded at 18,000 cells per well in collagen-coated 384-well microtiter plates in medium containing 10% heat inactivated fetal bovine serum (hiFBS). Cells were cultured at 37°C in 5% CO2. For NF175, medium was replaced by fresh medium containing 10% hiFBS, 5 h post plating. For NF135, medium was replaced by medium containing 0.2% BSA, 24 h post plating. 48 h post plating, salivary glands from Plasmodium-NF175 or NF135-infected Anopheles stephensi mosquitoes were dissected, added to the hepatocytes (10,000 per well/ NF175; or 12,500 per well/ NF135) and allowed to infect for 3 hours. Sporozoites were then aspirated, and compounds diluted in medium containing 10% hiFBS or 0.2% BSA, were added to the hepatocytes. Medium containing 10% hiFBS or 0.2% BSA and compounds was refreshed daily for four days. Hepatocytes were fixed with ice-cold methanol and samples were blocked with 10% hiFBS in PBS. Schizonts were stained with rabbit anti-HSP70 in 10% hiFBS for 1–2 h followed by incubation with a mixture of secondary goat anti-rabbit AlexaFluor 594 antibody and 4′,6-diamidine-2′-phenylindole dihydrochloride (DAPI) in 10% hiFBS for 30 min. Samples were washed with PBS containing 0.05% Tween 20 between different steps. Cells were imaged on a PicoExpress high content imager, and images were analysed automatically using CellReporterXpress software. Data were analysed by logistic regression using a four-parameter (Hill equation) model and a least-squares method to find the best fit.

Primary hepatocytes = experiment: Toxicity to primary hepatocyte host cells in the liver stage assay; type: cell-based, human; conditions: Homo sapiens, Hepatocyte
Description: as §1

[8] = tested on: P. falciparum Brazilian field isolates; experiment: Ex vivo drug susceptibility of Brazilian field isolates (P. falciparum); type: cell-based
Description: (§2) Compounds were assayed on ten P. vivax isolates and seven P. falciparum Brazilian isolates collected from mono-infected patients, who had signed a written informed consent form to participate in the study, using previously described methods. The initial parasitemia ranged from 2,100–8,000 parasites/μL for P. vivax and 3,500–9,000 parasites/μL for P. falciparum isolates. Artesunate and chloroquine were assayed in parallel as standard compounds. The analyses included only the isolates that were incubated for ≥ 40 h with the compounds.

[9] = tested on: P. vivax Brazilian field isolates; experiment: Ex vivo drug susceptibility of Brazilian field isolates (P. vivax); type: cell-based
Description: as §2

[10] = tested on: P. falciparum (strain 3D7A); experiment: Parasite Reduction Rate (PRR) estimation; type: cell-based, Plasmodium falciparum; conditions: 10 x IC50
Description: PRR was assessed using a standardized method. P. falciparum (strain 3D7A, MRA-151), contributed by David Walliker, was obtained through BEI Resources, NIAID, NIH. Cultures of parasites (~90% ring stage) were treated with compounds for 120 h, with daily renewal. Samples of parasites were taken at 0, 24, 48, 72, 96 and 120 h. Compounds were washed out and four independent 3-fold serial dilutions were established in 96-well plates, with fresh RBCs and culture medium. After 18 days, and again at 22 days, samples were taken to examine growth using SYBR Green I in an EnVision Multilabel Plate Reader (Perkin Elmer) and analysed using Excel and Grafit 5.0 software. The human biological samples were sourced ethically, and their research use was in accord with the terms of the informed consents under an IRB/EC approved protocol.

[11] = tested on: P. falciparum liver stage schizont (NF175); experiment: Liver stage schizont assay in primary human hepatocytes (NF175); type: cell-based; conditions: Plasmodium falciparum, Hepatocyte, 96 h, four days
Description: as §1, with “Hepatocytes were fixed with ice-cold methanol and samples were blocked with 10% hiFBS in PBS. Schizonts were stained with rabbit anti-HSP70 in 10% hiFBS for 1–2 h followed by incubation with a mixture of secondary goat anti-rabbit AlexaFluor 594 antibody and 4′,6-diamidine-2′-phenylindole dihydrochloride (DAPI) in 10% hiFBS for 30 min. Samples were washed with PBS containing 0.05% Tween 20 between different steps.” left out

[12] = read-out: Early stage gametocytes IC50
[13] = read-out: Mature stage gametocytes IC50

T1 sequence (Q8IAR7 entry or part of it): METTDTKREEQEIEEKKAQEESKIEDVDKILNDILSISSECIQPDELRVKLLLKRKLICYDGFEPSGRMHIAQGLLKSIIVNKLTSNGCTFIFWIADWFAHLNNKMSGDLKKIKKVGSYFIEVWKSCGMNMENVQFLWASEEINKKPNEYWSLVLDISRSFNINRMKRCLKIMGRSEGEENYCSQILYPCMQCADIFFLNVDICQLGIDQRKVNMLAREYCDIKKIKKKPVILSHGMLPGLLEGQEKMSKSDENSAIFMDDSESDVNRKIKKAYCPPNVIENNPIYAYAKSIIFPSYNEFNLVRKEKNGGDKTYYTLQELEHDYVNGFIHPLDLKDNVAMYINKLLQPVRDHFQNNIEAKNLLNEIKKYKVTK

O=C(NCCN1CCCC1)c1cc(-c2ccc(CN3CCOCC3)cc2)nc2ccc(F)cc12 [Cabamiquine, reference compound]
IC50 ([1]; female, read-out: Dual gamete formation assay (female) IC50(48h)): 2.2 ± 0.1 nM
IC50 ([1]; male, read-out: Dual gamete formation assay (male) IC50(48h)): 2.3 ± 0.4 nM

C[C@@H]1CC[C@H]2[C@@H](C)C(=O)O[C@@H]3O[C@@]4(C)CC[C@@H]1[C@]32OO4 [Artemisinin]
Lag phase [2]: 0 h
Log PRR [2]: > 4.8
PCT99.9% [2]: < 24 h

CC(=O)c1nn([C@@H]2O[C@H](COS(N)(=O)=O)[C@@H](O)[C@H]2O)c2ncnc(N)c12 [ML111]
ΔTm at 50 µM (PfTyrRS [3]): 15.1 ± 0.2 °C
Kd (PfTyrRS [3]): 0.7 nM
PfTyrRS Tm (PfTyrRS [3]): 65.0 ± 0.5 °C
IC50 [4]: 4.3 ± 0.7 nM
IC50 (HepG2 cells): > 50 µM
IC50 (PfTyrRS [5]): 34 ± 14 µM

CN(C)c1ccc2nc3ccc(=[N+](C)C)cc-3sc2c1 [Methylene blue, reference compound]
IC50 [6, 12]: 62 ± 11 nM
IC50 [6, 13]: 353 ± 63 nM

CS(=O)(=O)c1ccc(-c2cnc(N)c(-c3ccc(C(F)(F)F)nc3)c2)cc1 [MMV390048, reference compound]
IC50 [7]: 23.3 ± 13.3 nM
IC50 (Primary hepatocytes; host cells of the NF135 experiment): > 100 nM
IC50 [6, 12]: 138 ± 8 nM
IC50 [6, 13]: 150 ± 20 nM

C[C@H]1[C@H](OC(=O)CCC(=O)O)O[C@@H]2O[C@@]3(C)CC[C@H]4[C@H](C)CC[C@@H]1[C@@]24OO3 [Artesunate]
EC50 ([8]; Plasmodium falciparum; range over n = 7 isolates; read-out: EC50 range, P. falciparum Brazilian field isolates): 0.8 to 3.1 nM
EC50 ([8]; Plasmodium falciparum; read-out: Median EC50, P. falciparum Brazilian field isolates): 2.2 nM
EC50 ([9]; Plasmodium vivax; range over n = 10 isolates; read-out: EC50 range, P. vivax Brazilian field isolates): 0.8 to 3.5 nM
EC50 ([9]; Plasmodium vivax; read-out: Median EC50, P. vivax Brazilian field isolates): 1.7 nM

CCc1nc(N)nc(N)c1-c1ccc(Cl)cc1 [Pyrimethamine, reference compound]
Lag phase [10]: 24 h
Log PRR [10]: 3.7
PCT99.9% [10]: 56 h
Slope [10]: -0.078

CCN(CC)CCCC(C)Nc1ccnc2cc(Cl)ccc12 (centres unmarked) [Chloroquine]
EC50 ([8]; Plasmodium falciparum, read-out: EC50 range, P. falciparum Brazilian field isolates): 172 to 520 nM
EC50 ([8]; Plasmodium falciparum, read-out: Median EC50, P. falciparum Brazilian field isolates): 286 nM
EC50 ([9]; Plasmodium vivax, read-out: EC50 range, P. vivax Brazilian field isolates): 104 to 560 nM
EC50 ([9]; Plasmodium vivax, read-out: Median EC50, P. vivax Brazilian field isolates): 143 nM
Lag phase [2]: 0 h
PCT99.9% [2]: 33.8 h
Slope [2]: -0.094

Nc1ncnc2c1c(C1CC1)nn2[C@@H]1O[C@H](COS(N)(=O)=O)[C@@H](O)[C@H]1O [ML864]
ΔTm at 50 µM (PfTyrRS [3]): 17 ± 0.1 °C
Kd (PfTyrRS [3]): 0.3 nM
PfTyrRS Tm (PfTyrRS [3]): 66.9 ± 0.5 °C
IC50 [4]: 2.5 ± 0.6 nM
IC50 (HepG2 cells): 21.3 µM
IC50 (PfTyrRS [5]): 8.5 ± 4.5 µM

O=C1C(O)=C([C@H]2CC[C@H](c3ccc(Cl)cc3)CC2)C(=O)c2ccccc21 [Atovaquone]
IC50 (Primary hepatocytes; host cells of the NF175 experiment): > 1000 nM
IC50 [11]: 7 ± 3.9 nM
Lag phase [2]: 48 h
Log PRR [2]: 2.9
PCT99.9% [2]: 90 h
Slope [2]: -0.060

From article PMC11671014 (PLOS Pathogens, 2024)
